Each structure is given as a SMILES string.

Common to all, as to type: in vivo
The test system of assay [1] is ABUTH. Nature of the assay: Pre-emergence herbicidal activity, glasshouse pot test. The note with it: rate 1000 g/Ha, evaluated after 13 days, scale 0-5. Put shortly:
(§1)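 Visual 0–5 injury score (5 = total damage) taken 13 days after spraying. Treatment applied one day after sowing, before emergence; glasshouse at 24/16 °C day/night, 14 h photoperiod, 65% humidity.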

In assay [2] the test system is ALOMY. The description is as above. The note with it: rate 1000 g/Ha, evaluated after 13 days, scale 0-5. Put shortly: as §1
Assay [3] concerns AMARE. The assay is described as above. The note with it: rate 1000 g/Ha, evaluated after 13 days, scale 0-5. Put shortly:
as §1

For assay [4], the system named is ECHCG. The assay is described as above. The note with it: rate 1000 g/Ha, evaluated after 13 days, scale 0-5. The gist of the method:
as §1

The test system of assay [5] is SETFA. The description is as above. The note with it: rate 1000 g/Ha, evaluated after 13 days, scale 0-5. Put shortly:
as §1

In assay [6] the test system is ZEAMX. Described as above. The note with it: rate 1000 g/Ha, evaluated after 13 days, scale 0-5. Put shortly: as §1
Assay [7] has as its system ABUTH. Kind of assay: Post-emergence herbicidal activity, glasshouse pot test. To be noted: Abutilon theophrasti; application post-emergence; rate 1000 g/Ha; evaluated after 13 days. The gist of the method: (§2)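 Pot-grown seedlings sprayed 8 days after sowing with active ingredient in acetone/water (50:50) plus 0.5% Tween 20. Glasshouse at 24/16 °C day/night, 14 h light, 65% humidity, watered twice daily. Damage scored after 13 days on a 0–5 scale (5 = total damage, 0 = none).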

In assay [8] the test system is ALOMY. Described as above. To be noted: Alopecurus myosuroides; application post-emergence; rate 1000 g/Ha; evaluated after 13 days. The gist of the method: as §2
In assay [9] the test system is AMARE. The description is as above. To be noted: Amaranthus retroflexus; application post-emergence; rate 1000 g/Ha; evaluated after 13 days. The gist of the method: as §2
For assay [10], the system named is ECHCG. The assay is described as above. To be noted: Echinochloa crus-galli; application post-emergence; rate 1000 g/Ha; evaluated after 13 days. The gist of the method:
as §2

Assay [11] has as its system SETFA. The description is as above. To be noted: Setaria faberi; application post-emergence; rate 1000 g/Ha; evaluated after 13 days. The gist of the method: as §2
The subject of assay [12] is ZEAMX. The assay is described as above. The note with it: Zea mays; application post-emergence; rate 1000 g/Ha; evaluated after 13 days. The gist of the method:
as §2
Wherever ABUTH damage score, application pre-emergence is given: key: 5=total damage to plant; 0=no damage to plant.
Wherever AMARE damage score, application pre-emergence is given: key: 5=total damage to plant; 0=no damage to plant.
Wherever Post-emergence herbicidal activity ABUTH (damage score 0-5) is given: key: 5=total damage to plant; 0=no damage to plant.
Wherever Post-emergence herbicidal activity ALOMY (damage score 0-5) is given: key: 5=total damage to plant; 0=no damage to plant.

As to `CCOC1C(OC(=O)[C@@H]2[C@@H](C=C(Cl)Cl)C2(C)C)N(c2cc(C(F)(F)F)ccn2)C(=O)N1C` (stereo partly drawn) [Compound A98], the “ABUTH damage score, application pre-emergence” value (“ABUTH damage score” below) in [1] is 0. Moreover, the “ALOMY damage score, application pre-emergence” value (“ALOMY damage score” below) in assay [2] is listed as 0. Further, in [3], the “AMARE damage score, application pre-emergence” value (“AMARE damage score” below) is 0. The “ECHCG damage score, application pre-emergence” value (“ECHCG damage score” below) in [4] amounted to 0. In addition, the “SETFA damage score, application pre-emergence” value (“SETFA damage score” below) in [5] was 0. For the same molecule, the “ZEAMX damage score, application pre-emergence” value (“ZEAMX damage score” below) in [6] is 0. Further, the “Post-emergence herbicidal activity ABUTH (damage score 0-5)” value (“Post-emergence herbicidal activity ABUTH” below) in assay [7] is reported as 0. Further, the “Post-emergence herbicidal activity ALOMY (damage score 0-5)” value (from here on “Post-emergence herbicidal activity ALOMY”) in [8] came out at 0. In addition, the “Post-emergence herbicidal activity AMARE (damage score 0-5)” value (shortened to “Post-emergence herbicidal activity AMARE”) in assay [9] is recorded as 4. In addition, the “Post-emergence herbicidal activity ECHCG (damage score 0-5)” value (“Post-emergence herbicidal activity ECHCG” below) in assay [10] turned out to be 0. For the same molecule, in assay [11], the “Post-emergence herbicidal activity SETFA (damage score 0-5)” value (from here on “Post-emergence herbicidal activity SETFA”) is recorded as 0. Moreover, in [12], the “Post-emergence herbicidal activity ZEAMX (damage score 0-5)” value (shortened to “Post-emergence herbicidal activity ZEAMX”) stood at 1.

On to `CCOC1C(OC(=O)[C@@H](C)c2ccc(CC(C)C)cc2)N(c2cc(C(F)(F)F)ccn2)C(=O)N1C` (stereo partly drawn) [Compound A99], for which, in assay [1], the “ABUTH damage score” value turned out to be 1. Also, the “ALOMY damage score” value in assay [2] was 0. The “AMARE damage score” value in assay [3] came to 5. For the same molecule, the “ECHCG damage score” value in assay [4] is given as 0. Further, the “SETFA damage score” value in assay [5] worked out at 0. Besides, the “ZEAMX damage score” value in assay [6] came out at 0. Besides, the “Post-emergence herbicidal activity ABUTH” value in assay [7] came to 1. Moreover, the “Post-emergence herbicidal activity ALOMY” value in assay [8] is recorded as 0. The “Post-emergence herbicidal activity AMARE” value in [9] was 5. In addition, the “Post-emergence herbicidal activity ECHCG” value in assay [10] came to 3. For the same molecule, in assay [11], the “Post-emergence herbicidal activity SETFA” value is 0. The “Post-emergence herbicidal activity ZEAMX” value in assay [12] was 1.

Regarding `CCOC1C(OC(=O)[C@@H]2CCCO2)N(c2cc(C(F)(F)F)ccn2)C(=O)N1C` (stereo partly drawn) [Compound A100], the “ABUTH damage score” value in assay [1] is listed as 5. The “ALOMY damage score” value in assay [2] worked out at 4. Also, the “AMARE damage score” value in assay [3] turned out to be 5. In assay [4], the “ECHCG damage score” value amounted to 3. Besides, in assay [5], the “SETFA damage score” value came to 3. In addition, the “ZEAMX damage score” value in assay [6] is recorded as 1. Also, in assay [7], the “Post-emergence herbicidal activity ABUTH” value worked out at 5. Further, in assay [8], the “Post-emergence herbicidal activity ALOMY” value turned out to be 5. Besides, in [9], the “Post-emergence herbicidal activity AMARE” value came to 5. In assay [10], the “Post-emergence herbicidal activity ECHCG” value is recorded as 5. In addition, the “Post-emergence herbicidal activity SETFA” value in assay [11] is listed as 5. For the same molecule, the “Post-emergence herbicidal activity ZEAMX” value in assay [12] is listed as 4.

For `CCO[C@@H]1[C@@H](OC(=O)C(C)Cl)N(c2cc(C(F)(F)F)ccn2)C(=O)N1C` (stereo partly drawn) [Compound A101], in assay [1], the “ABUTH damage score” value was 5. The “ALOMY damage score” value in assay [2] is listed as 4. The “AMARE damage score” value in assay [3] is 5. The “ECHCG damage score” value in assay [4] was determined as 4. In assay [5], the “SETFA damage score” value is listed as 4. Besides, the “ZEAMX damage score” value in assay [6] is reported as 0. The “Post-emergence herbicidal activity ABUTH” value in [7] is recorded as 5. In [8], the “Post-emergence herbicidal activity ALOMY” value stood at 5. In addition, the “Post-emergence herbicidal activity AMARE” value in assay [9] is reported as 5. Further, the “Post-emergence herbicidal activity ECHCG” value in [10] stood at 5. Further, in [11], the “Post-emergence herbicidal activity SETFA” value came out at 5. For the same molecule, the “Post-emergence herbicidal activity ZEAMX” value in assay [12] stood at 3.
